Measured values taken from ChEMBL document CHEMBL4325925, “Privileged Structures and Polypharmacology within and between Protein Families” (ACS Med Chem Lett, 2018).

Experiments:
[1] = target: T1, Pirin (Homo sapiens, UniProt O00625); experiment: Displacement of 6-amino-9-(2-((4-((2-((6-((5-(2,3-dihydrobenzo[b][1,4]dioxine-6-carboxamido)-2-methylphenyl)carbamoyl)quinolin-2-yl)oxy)ethyl)amino)-4-oxobutyl)(methyl)carbamoyl)phenyl)-3-imino-3H-xanthene-4,5-disulfonic acid from pirin (unknown origin) by fluorescence polarization assay
T1 sequence (O00625 whole entry): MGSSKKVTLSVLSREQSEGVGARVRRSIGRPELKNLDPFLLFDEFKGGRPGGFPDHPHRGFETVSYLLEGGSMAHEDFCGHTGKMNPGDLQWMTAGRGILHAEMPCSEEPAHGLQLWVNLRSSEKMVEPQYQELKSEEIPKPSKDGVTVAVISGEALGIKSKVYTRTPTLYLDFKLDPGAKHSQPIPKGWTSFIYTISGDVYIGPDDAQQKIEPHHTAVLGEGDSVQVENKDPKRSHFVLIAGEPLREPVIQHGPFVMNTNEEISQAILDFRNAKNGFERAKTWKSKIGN

[2] = target: Serine/threonine-protein kinase B-raf (Homo sapiens, UniProt P15056); experiment: Inhibition of recombinant human full length GST-tagged BRAF expressed in baculovirus expression system
[3] = target: T2, Serine/threonine-protein kinase TAO1 (Homo sapiens, UniProt Q7L7X3); experiment: Inhibition recombinant human TAOK1 (1 to 356 residues) after 5 mins in presence of [33P] ATP by Topcount method
T2 sequence (Q7L7X3 whole entry): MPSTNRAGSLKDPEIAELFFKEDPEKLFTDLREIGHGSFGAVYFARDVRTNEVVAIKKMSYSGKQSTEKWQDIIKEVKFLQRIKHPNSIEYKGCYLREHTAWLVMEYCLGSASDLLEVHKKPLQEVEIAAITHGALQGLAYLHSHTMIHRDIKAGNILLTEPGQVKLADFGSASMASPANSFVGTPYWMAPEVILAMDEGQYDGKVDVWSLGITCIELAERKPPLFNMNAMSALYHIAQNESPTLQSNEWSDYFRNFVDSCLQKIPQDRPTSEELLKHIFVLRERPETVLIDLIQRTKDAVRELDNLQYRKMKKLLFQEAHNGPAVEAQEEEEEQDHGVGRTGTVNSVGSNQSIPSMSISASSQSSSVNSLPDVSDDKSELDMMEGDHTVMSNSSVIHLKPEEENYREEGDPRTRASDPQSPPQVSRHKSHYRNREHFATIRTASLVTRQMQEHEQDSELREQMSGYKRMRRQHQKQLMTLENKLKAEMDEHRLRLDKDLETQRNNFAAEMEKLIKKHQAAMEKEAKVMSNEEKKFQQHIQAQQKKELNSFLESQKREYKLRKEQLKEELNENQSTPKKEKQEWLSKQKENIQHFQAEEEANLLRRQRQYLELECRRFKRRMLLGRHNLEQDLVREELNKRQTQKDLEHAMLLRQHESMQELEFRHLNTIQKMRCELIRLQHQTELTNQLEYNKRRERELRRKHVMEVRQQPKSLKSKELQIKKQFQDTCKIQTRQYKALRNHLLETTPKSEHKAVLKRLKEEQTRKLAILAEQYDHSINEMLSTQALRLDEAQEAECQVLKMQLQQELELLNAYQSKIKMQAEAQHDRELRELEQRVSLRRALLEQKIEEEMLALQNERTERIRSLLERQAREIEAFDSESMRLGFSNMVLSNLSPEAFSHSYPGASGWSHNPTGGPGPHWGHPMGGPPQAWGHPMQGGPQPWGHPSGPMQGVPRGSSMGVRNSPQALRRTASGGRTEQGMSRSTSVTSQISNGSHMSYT

[4] = target: Homeodomain-interacting protein kinase 2 (Homo sapiens, UniProt Q9H2X6); experiment: Inhibition recombinant human HIPK2 (165 to 564 residues) after 5 mins in presence of [33P] ATP by Topcount method
[5] = target: Serine/threonine-protein kinase B-raf (Homo sapiens, UniProt P15056, V600E); experiment: Inhibition of recombinant human GST-tagged BRAF V600E mutant expressed in baculovirus expression system
Sequence of Serine/threonine-protein kinase B-raf (Homo sapiens, UniProt P15056, V600E) (P15056 2-766 V600E limits assumed): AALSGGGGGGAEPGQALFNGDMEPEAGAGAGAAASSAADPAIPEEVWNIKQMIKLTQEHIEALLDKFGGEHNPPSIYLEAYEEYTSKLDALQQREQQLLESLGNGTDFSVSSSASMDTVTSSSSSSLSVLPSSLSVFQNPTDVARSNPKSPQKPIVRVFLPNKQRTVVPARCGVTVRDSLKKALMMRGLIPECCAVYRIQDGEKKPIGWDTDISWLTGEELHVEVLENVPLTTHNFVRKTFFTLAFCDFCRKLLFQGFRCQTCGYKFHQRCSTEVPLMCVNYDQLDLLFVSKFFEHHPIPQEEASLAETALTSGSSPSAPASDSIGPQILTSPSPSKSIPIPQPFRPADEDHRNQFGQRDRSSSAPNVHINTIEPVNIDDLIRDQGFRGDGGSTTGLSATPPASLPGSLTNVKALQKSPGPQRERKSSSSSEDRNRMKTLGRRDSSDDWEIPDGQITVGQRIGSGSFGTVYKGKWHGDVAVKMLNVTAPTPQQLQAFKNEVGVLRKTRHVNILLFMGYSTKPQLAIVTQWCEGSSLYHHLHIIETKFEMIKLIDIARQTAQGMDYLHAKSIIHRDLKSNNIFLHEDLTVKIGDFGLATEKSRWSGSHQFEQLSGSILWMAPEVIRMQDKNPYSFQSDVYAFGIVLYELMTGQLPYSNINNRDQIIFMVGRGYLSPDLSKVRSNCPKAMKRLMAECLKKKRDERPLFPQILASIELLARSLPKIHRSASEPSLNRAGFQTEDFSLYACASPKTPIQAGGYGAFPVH

Sequence of Serine/threonine-protein kinase B-raf (Homo sapiens, UniProt P15056) (P15056 whole entry, the tested form may be a part): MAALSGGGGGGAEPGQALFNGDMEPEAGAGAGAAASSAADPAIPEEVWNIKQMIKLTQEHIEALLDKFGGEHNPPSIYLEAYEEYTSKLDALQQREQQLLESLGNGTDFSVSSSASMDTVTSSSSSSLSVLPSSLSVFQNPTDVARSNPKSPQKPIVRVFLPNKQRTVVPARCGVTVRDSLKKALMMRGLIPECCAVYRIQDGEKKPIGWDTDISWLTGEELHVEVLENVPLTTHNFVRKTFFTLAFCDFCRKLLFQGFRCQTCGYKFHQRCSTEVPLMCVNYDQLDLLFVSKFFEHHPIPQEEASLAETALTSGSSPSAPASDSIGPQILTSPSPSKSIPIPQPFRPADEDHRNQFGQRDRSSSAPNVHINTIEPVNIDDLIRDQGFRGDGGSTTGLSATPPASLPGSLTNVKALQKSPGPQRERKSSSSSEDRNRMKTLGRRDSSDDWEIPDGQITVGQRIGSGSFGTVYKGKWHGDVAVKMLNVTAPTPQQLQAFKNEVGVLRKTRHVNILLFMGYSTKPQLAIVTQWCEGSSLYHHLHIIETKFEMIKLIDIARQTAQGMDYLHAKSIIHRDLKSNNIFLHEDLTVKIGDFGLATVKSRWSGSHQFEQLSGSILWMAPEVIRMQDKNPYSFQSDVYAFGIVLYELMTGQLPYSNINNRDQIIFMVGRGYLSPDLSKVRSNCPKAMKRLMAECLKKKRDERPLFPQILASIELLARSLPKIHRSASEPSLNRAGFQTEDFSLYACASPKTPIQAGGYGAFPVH
Sequence of Homeodomain-interacting protein kinase 2 (Q9H2X6 whole entry, the tested form may be a part): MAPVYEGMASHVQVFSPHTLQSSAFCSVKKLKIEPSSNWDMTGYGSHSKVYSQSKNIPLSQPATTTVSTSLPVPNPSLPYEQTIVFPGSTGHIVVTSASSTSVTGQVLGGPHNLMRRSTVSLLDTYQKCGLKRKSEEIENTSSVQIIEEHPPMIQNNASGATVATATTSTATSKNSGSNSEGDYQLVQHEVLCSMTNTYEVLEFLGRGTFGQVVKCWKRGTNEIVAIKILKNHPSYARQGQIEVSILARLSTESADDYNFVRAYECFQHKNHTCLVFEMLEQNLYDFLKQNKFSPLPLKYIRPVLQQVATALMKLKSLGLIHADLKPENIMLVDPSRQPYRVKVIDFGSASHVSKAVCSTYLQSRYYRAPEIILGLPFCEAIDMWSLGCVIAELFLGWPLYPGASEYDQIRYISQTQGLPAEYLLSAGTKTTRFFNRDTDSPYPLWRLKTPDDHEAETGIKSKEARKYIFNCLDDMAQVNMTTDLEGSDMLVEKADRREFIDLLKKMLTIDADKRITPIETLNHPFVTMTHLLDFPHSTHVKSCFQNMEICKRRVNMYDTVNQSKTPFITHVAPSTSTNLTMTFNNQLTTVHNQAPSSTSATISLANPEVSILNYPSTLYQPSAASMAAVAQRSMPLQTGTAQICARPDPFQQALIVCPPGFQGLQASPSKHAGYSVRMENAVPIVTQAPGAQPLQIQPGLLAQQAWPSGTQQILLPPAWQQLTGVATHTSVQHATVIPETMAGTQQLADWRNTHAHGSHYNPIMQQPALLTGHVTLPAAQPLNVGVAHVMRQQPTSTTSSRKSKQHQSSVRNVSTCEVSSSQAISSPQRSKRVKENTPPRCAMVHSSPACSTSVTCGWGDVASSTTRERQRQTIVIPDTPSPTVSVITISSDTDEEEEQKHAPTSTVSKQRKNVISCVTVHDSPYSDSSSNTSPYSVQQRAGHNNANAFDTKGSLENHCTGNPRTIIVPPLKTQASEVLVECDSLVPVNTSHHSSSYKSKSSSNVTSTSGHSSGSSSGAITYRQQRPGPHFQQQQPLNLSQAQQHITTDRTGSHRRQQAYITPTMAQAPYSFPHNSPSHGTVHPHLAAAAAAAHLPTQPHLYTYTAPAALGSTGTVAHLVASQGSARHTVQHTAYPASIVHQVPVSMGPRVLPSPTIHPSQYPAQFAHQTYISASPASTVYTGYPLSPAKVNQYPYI

Row | IC50 [1] | Structure (SMILES) | also measured
1 | 0.67 µM | CCCS(=O)(=O)Nc1ccc(F)c(C(=O)c2c[nH]c3ncc(Cl)cc23)c1F [PLX-4720] | –
2 | 0.033 µM | CC(C)(C)N1CCN(Cc2ccc3cc(C(=O)Nc4cc(NC(=O)c5ccc6c(c5)OCCO6)ccc4Cl)ccc3n2)CC1 | IC50 [2]: > 10 µM
3 | > 10 µM | OCCn1cc(-c2ccc3c(c2)CC/C3=N\O)c(-c2ccncc2)n1 | –
4 | > 10 µM | CC(C)(C)c1nc(-c2cccc(NS(=O)(=O)c3c(F)cccc3F)c2F)c(-c2ccnc(N)n2)s1 [DABRAFENIB] | –
5 | > 10 µM | Cn1c(Nc2ccc(C(F)(F)F)cc2)nc2cc(Oc3ccnc(-c4ncc(C(F)(F)F)[nH]4)c3)ccc21 [RAF-265] | –
6 | – | c1cnc2ncn(-c3cc(Nc4ccc(OCCN5CCCCC5)cn4)ncn3)c2c1 | IC50 [3]: 0.49 µM; IC50 [4]: 0.03 µM
7 | > 10 µM | Cc1ccc(NC(=O)c2cccc(C(C)(C)C#N)c2)cc1Nc1ccc2ncn(C)c(=O)c2c1 | –

Row | Structure (SMILES) | IC50 [1] | also measured
8 | N#Cc1c(Oc2ccc(F)c(NC(=O)Cc3cccc(C(F)(F)F)c3)c2)ccc2nc(NC(=O)C3CC3)sc12 | > 10 µM | IC50 [2]: 0.008 µM; IC50 [5]: 0.002 µM
